Results as given in patent US10065990B2, “Cyclic peptide compound, and preparation method, pharmaceutical composition and use thereof” (HANGZHOU GUANYU BIO-MEDICAL CO., LTD, priority 2013, dated 2018).
Like-named read-outs stand apart in the source and are kept apart here. Blank lines part the entries; values can stand above or below the compound they belong to.

How the values were obtained:
[1] = biological target: T1, HDAC11 (Homo sapiens, UniProt Q96DB2); experiment: HDAC biochemical activity measurement (fluorescent substrate deacetylation);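 further: HDAC11 enzyme acting on an acetyl-lysine fluorogenic substrate, then a developer frees the fluorophore, read at excitation 360 nm and emission 460 nm, IC50 over a compound dilution series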; details: read-out: IC50 HDAC11; HDAC11; 37° C. 30 minutes
T1 sequence (Q96DB2 1-347): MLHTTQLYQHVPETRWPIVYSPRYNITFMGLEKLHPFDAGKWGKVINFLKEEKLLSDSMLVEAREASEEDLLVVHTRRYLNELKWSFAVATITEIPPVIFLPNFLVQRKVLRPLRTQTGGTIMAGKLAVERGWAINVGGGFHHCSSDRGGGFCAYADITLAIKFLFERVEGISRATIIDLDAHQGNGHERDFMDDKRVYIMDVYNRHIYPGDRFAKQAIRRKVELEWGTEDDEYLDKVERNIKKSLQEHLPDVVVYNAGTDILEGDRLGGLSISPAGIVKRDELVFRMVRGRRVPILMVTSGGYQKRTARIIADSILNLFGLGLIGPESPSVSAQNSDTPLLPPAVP
Protocol: (§2) The chemical activity of the compound is determined according to the degree of deacetylation inhibition of the HDAC enzyme. This experiment measured the degree of deacetylation related to tumor proliferation and metastasis of HDAC1, HDAC2, HDAC3, HDAC8, HDAC11 five subtypes HDAC enzymes. After the substrate containing an acetylated lysine side chain and HDAC enzyme are labeled with a fluorescent label, the fluorescent substrate is de acetyl. The fluorescent labeled substrate is cleaved by the enzyme, and the fluorescent substance is released, which generates 460 nm emission light under the excitation of 360 nm light.
(§3) HDAC substrate was diluted with reaction buffer to 200M (reaction concentration of 20M), the HDAC enzyme was diluted to the appropriate concentration, then added different concentrations of the test compounds and acted at 37° C. 30 minutes, and then added the same volume of 2-times concentration substrate developing solution (developer), incubated at room temperature for 15 minutes.

[2] = test system: MDA-MB-231 (breast cancer cells); experiment: MTT cancer cell growth inhibition; assay type: cell-based
Procedure, shortened: (§1)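 Cells grown in DMEM or RPMI 1640 with 10% FBS were seeded at 1500/well and left overnight at 37° C., 5% CO2. Compounds at final 10^−5 to 10^−10 M were added in triplicate for 72 h. MTT was then added for 4 h, formazan dissolved in DMSO, and absorbance read at 570 nm to derive GI50.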

[3] = test system: PANC-1 (Pac-1, human pancreatic cancer cells); experiment: MTT cancer cell growth inhibition; assay type: cell-based; details: MTT, 72 hours incubation, read-out: GI50 PAN
Procedure, shortened: as §1

[4] = test system: Hela (human cervical cancer cells); experiment: MTT cancer cell growth inhibition; assay type: cell-based; details: MTT, 72 hours incubation, read-out: GI50 Hela
Procedure, shortened: as §1

[5] = test system: N-87 (human gastric cancer cells); experiment: MTT cancer cell growth inhibition; assay type: cell-based; details: MTT, 72 hours incubation, N-87 cells, read-out: GI50 N-87
Procedure, shortened: as §1

[6] = test system: MCF-7 (human breast cancer cells); experiment: MTT cancer cell growth inhibition; assay type: cell-based; details: 72 hours incubation, read-out: GI50 MCF
Procedure, shortened: as §1

[7] = test system: HCC827 (human non-small cell lung cancer cells); experiment: MTT cancer cell growth inhibition; assay type: cell-based; details: MTT, 72 hours incubation, HCC827 cells, read-out: GI50 HCC827
Procedure, shortened: as §1

[8] = test system: SGC-7901 (human gastric cancer cells); experiment: MTT cancer cell growth inhibition; assay type: cell-based; details: MTT, 72 hours incubation, SGC-7901 cells, read-out: GI50 SGC-7901
Procedure, shortened: as §1

[9] = test system: U937 (human leukemia cells); experiment: MTT cancer cell growth inhibition; assay type: cell-based; details: MTT, 72 hours incubation, read-out: GI50 U93
Procedure, shortened: as §1

[10] = test system: HT1080 (human fibrosarcoma cells); experiment: MTT cancer cell growth inhibition; assay type: cell-based; details: MTT, 72 hours incubation, read-out: GI50 HT1
Procedure, shortened: as §1

[11] = test system: BGC-823 (human gastric cancer cells); experiment: MTT cancer cell growth inhibition; assay type: cell-based; details: MTT, 72 hours incubation, read-out: GI50 BG
Procedure, shortened: as §1

[12] = test system: Huh-7 (human hepatoma cells); experiment: MTT cancer cell growth inhibition; assay type: cell-based; details: MTT, 72 hours incubation, Huh-7 cells, read-out: GI50 Huh-7
Procedure, shortened: as §1

[13] = test system: DU145 (human prostate cancer cells); experiment: MTT cancer cell growth inhibition; assay type: cell-based; details: MTT, 72 hours incubation, read-out: GI50 Du1
Procedure, shortened: as §1

[14] = test system: MOLT-4 (human acute lymphoblastic leukemia cells); experiment: MTT cancer cell growth inhibition; assay type: cell-based; details: MTT, 72 hours incubation, read-out: GI50 Mol
Procedure, shortened: as §1

[15] = test system: Bel-7402 (human hepatoma cells); experiment: MTT cancer cell growth inhibition; assay type: cell-based; details: MTT, 72 hours incubation, Bel-7402 cells, read-out: GI50 Bel-7402
Procedure, shortened: as §1

[16] = test system: A549 (human lung cancer cells); experiment: MTT cancer cell growth inhibition; assay type: cell-based; details: MTT, 72 hours incubation, read-out: GI50 A54
Procedure, shortened: as §1

[17] = biological target: HDAC1 (Homo sapiens, UniProt Q13547); experiment: HDAC biochemical activity measurement (fluorescent substrate deacetylation);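 further: fluorogenic acetyl-lysine substrate (20 µM) deacetylated by HDAC1, then developer releases fluorophore read at 360 nm excitation and 460 nm emission, inhibitor incubated 30 min at 37 °C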
[18] = biological target: T2, HDAC8 (Homo sapiens, UniProt Q9BY41); experiment: as above; details: 37° C. 30 minutes
T2 sequence (Q9BY41 1-377): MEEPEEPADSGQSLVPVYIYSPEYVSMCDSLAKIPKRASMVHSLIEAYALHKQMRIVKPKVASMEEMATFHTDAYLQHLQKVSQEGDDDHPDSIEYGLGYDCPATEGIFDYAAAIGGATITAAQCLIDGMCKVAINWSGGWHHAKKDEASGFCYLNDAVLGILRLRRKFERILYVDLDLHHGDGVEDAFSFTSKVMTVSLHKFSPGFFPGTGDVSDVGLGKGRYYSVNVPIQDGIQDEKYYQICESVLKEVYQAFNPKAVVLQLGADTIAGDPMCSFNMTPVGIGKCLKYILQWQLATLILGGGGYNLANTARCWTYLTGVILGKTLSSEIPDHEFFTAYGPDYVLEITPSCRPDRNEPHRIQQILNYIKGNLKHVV
Protocol: as §2, §3

[19] = HDAC1, 37° C. 30 minutes, read-out: IC50 HDAC1

Sequence of HDAC1 (Q13547 whole entry, species assumed): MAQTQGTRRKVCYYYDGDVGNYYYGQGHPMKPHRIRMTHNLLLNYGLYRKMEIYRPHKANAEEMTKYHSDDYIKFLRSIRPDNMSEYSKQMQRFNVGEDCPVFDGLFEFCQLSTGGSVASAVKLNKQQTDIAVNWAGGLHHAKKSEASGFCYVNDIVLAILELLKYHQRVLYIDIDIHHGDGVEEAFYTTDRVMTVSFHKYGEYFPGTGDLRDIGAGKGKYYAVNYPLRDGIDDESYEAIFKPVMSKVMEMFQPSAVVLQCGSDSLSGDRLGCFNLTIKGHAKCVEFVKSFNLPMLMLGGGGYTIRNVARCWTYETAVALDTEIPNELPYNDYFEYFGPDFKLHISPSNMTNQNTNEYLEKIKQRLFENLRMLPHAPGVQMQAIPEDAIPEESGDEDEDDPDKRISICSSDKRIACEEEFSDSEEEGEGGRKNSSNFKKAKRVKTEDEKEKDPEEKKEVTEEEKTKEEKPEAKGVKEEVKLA

- IC50 [1]: 279 nM
- GI50 ([2]; read-out: GI50 MDA-MB-231, MTT, 72 hours incubation, MDA-MB-231 cells): 62 nM
- GI50 ([3]; PANC-1 cells): 60 nM
- GI50 ([4]; Hela cells): 60 nM
- GI50 [5]: 17 nM
- GI50 ([6]; MCF-7 cells): 40 nM
- GI50 [7]: 52 nM
- GI50 [8]: 93 nM
- GI50 ([9]; U937 cells): 30 nM
- GI50 ([10]; HT1080 cells): 90 nM
- GI50 ([11]; BGC-823 cells): 30 nM
- GI50 [12]: 36 nM
- GI50 ([13]; DU145 cells): 50 nM
- GI50 ([14]; MOLT-4 cells): 30 nM
- GI50 [15]: 23 nM
- GI50 ([16]; A549 cells): 50 nM
- IC50 [17, 19]: 184 nM
- IC50 [18]: 752 nM
SMILES: C/C=C1\NC(=O)c2cc(SC)cc(n2)CNC(=O)C[C@@H](/C=C/CCSC(C)=O)OC(=O)[C@H](C(C)C)NC1=O [Compound 224]

- IC50 [1]: 82 nM
- GI50 ([2]; Homo sapiens, MDA-MB-231, 72 h, read-out: GI50 MDA-MB-231, MTT, 72 hours incubation, MDA-MB-231 cells): 35 nM
- GI50 ([3]; Homo sapiens, PANC-1, 72 h): 50 nM
- GI50 ([4]; Homo sapiens, HeLa, 72 h): 90 nM
- GI50 ([5]; Homo sapiens, 72 h): 43 nM
- GI50 ([6]; Homo sapiens, MCF7, 72 h): 40 nM
- GI50 ([7]; Homo sapiens, HCC827, 72 h): 52 nM
- GI50 ([8]; Homo sapiens, SGC-7901, 72 h): 57 nM
- GI50 ([9]; Homo sapiens, U-937, 72 h): 30 nM
- GI50 ([10]; Homo sapiens, HT-1080, 72 h): 50 nM
- GI50 ([11]; Homo sapiens, BGC-823, 72 h): 40 nM
- GI50 ([12]; Homo sapiens, Huh-7, 72 h): 35 nM
- GI50 ([13]; Homo sapiens, DU-145, 72 h): 30 nM
- GI50 ([14]; Homo sapiens, MOLT-4, 72 h): 30 nM
- GI50 ([15]; Homo sapiens, Bel-7402, 72 h): 52 nM
- GI50 ([16]; Homo sapiens, A549, 72 h): 50 nM
- IC50 [17, 19]: 22 nM
- IC50 ([17]; Table 3, column C, read-out: IC50 HDAC1, C (six-membered ring with substituents)): 22 nM
- IC50 [18]: 35 nM
SMILES: C/C=C1\NC(=O)c2cc(F)cc(n2)CNC(=O)C[C@@H](/C=C/CCSC(=O)CC)OC(=O)[C@H](C(C)C)NC1=O [Compound 46]
